Test results: PubChem BioAssay AID1963831 (Molecular Pharmacology Branch, DTP, NCI, 2024)

System: 889142-216-R-J1-PDC complex spheroid viability
Test: Anticancer human tumor 889142-216-R-J1-PDC patient-derived bladder carcinoma cell line growth inhibition [POLQ]
Conditions: for IC50: curve of first compound; for viability, T/C: stronger effect = lower value
In short: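 Complex spheroid viability model combining PDC tumour cells with endothelial (HUVEC) and MSC stromal cells. Novobiocin, ART-558 or RP6685 were tested singly and in combination with standard and investigational anticancer drugs. Each was titrated in half-log steps from near clinical Cmax, or from 10 microM where Cmax was unknown.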

[1] = second compound 0.0316 µM, first compound 0.0316 µM
[2] = second compound 0.0316 µM, first compound 0.1 µM
[3] = second compound 0.0316 µM, first compound 0.316 µM
[4] = second compound 0.0316 µM, first compound 1 µM
[5] = second compound 0.0316 µM, first compound 3.16 µM
[6] = second compound 0.0316 µM, first compound 10 µM
[7] = second compound 0.1 µM, first compound 0.0316 µM
[8] = second compound 0.1 µM, first compound 0.1 µM
[9] = second compound 0.1 µM, first compound 0.316 µM
[10] = second compound 0.1 µM, first compound 1 µM
[11] = second compound 0.1 µM, first compound 3.16 µM
[12] = second compound 0.1 µM, first compound 10 µM
[13] = second compound 0.316 µM, first compound 0.0316 µM
[14] = second compound 0.316 µM, first compound 0.1 µM
[15] = second compound 0.316 µM, first compound 0.316 µM
[16] = second compound 0.316 µM, first compound 1 µM
[17] = second compound 0.316 µM, first compound 3.16 µM
[18] = second compound 0.316 µM, first compound 10 µM
[19] = second compound 1 µM, first compound 0.0316 µM
[20] = second compound 1 µM, first compound 0.1 µM
[21] = second compound 1 µM, first compound 0.316 µM
[22] = second compound 1 µM, first compound 1 µM
[23] = second compound 1 µM, first compound 3.16 µM
[24] = second compound 1 µM, first compound 10 µM
[25] = second compound 3.16 µM, first compound 0.0316 µM
[26] = second compound 3.16 µM, first compound 0.1 µM
[27] = second compound 3.16 µM, first compound 0.316 µM
[28] = second compound 3.16 µM, first compound 1 µM
[29] = second compound 3.16 µM, first compound 3.16 µM
[30] = second compound 3.16 µM, first compound 10 µM
[31] = second compound 10 µM, first compound 0.0316 µM
[32] = second compound 10 µM, first compound 0.1 µM
[33] = second compound 10 µM, first compound 0.316 µM
[34] = second compound 10 µM, first compound 1 µM
[35] = second compound 10 µM, first compound 3.16 µM
[36] = second compound 10 µM, first compound 10 µM
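Also: spheroids exposed to compounds for seven days.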
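For viability, T/C in this document: 100% = DMSO vehicle control viability.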

`CCCS(=O)(=O)Nc1ccc(F)c(C(=O)c2c[nH]c3ncc(-c4ccc(Cl)cc4)cc23)c1F` + Nc1ccc(C#CCN(C(=O)Cc2ncc(C(F)(F)F)cc2C(F)(F)F)c2ccc(F)cc2)nn1 was tested, and the IC50 (second compound 0.0316 µM) was 7.49 µM, the IC50 (second compound 0.1 µM) was 7.28 µM and the IC50 (second compound 0.316 µM) was 7.56 µM. It also gave an IC50 (second compound 1 µM) greater than 10 µM, an IC50 (second compound 3.16 µM) of 9.53 µM and an IC50 (second compound 10 µM) greater than 10 µM. For the same compound, the viability, T/C [1] was 97.8%, the viability, T/C [2] was 118% and the viability, T/C [3] was 122%. For the same compound, the viability, T/C [4] was 98.3%, the viability, T/C [5] was 71.5% and the viability, T/C [6] was 42.8%. For the same compound, the viability, T/C [7] was 114%, the viability, T/C [8] was 98.7% and the viability, T/C [9] was 92.8%. The viability, T/C [10] was 96.5%, the viability, T/C [11] was 69.6% and the viability, T/C [12] was 41.7%. The viability, T/C [13] was 105%, the viability, T/C [14] was 101% and the viability, T/C [15] was 87.4%. It also gave a viability, T/C [16] of 78.6%, a viability, T/C [17] of 80.3% and a viability, T/C [18] of 40.6%. For the same compound, the viability, T/C [19] was 105%, the viability, T/C [20] was 81.6% and the viability, T/C [21] was 129%. For the same compound, the viability, T/C [22] was 76.2%, the viability, T/C [23] was 63.3% and the viability, T/C [24] was 49.4%. The viability, T/C [25] was 93.7%, the viability, T/C [26] was 92.1% and the viability, T/C [27] was 116%. It also gave a viability, T/C [28] of 94.2%, a viability, T/C [29] of 92.5% and a viability, T/C [30] of 47.9%. For the same compound, the viability, T/C [31] was 93.2%, the viability, T/C [32] was 103% and the viability, T/C [33] was 98.7%. For the same compound, the viability, T/C [34] was 96.8%, the viability, T/C [35] was 77.5% and the viability, T/C [36] was 59.2%.

In the case of `CC(C)n1c(=O)n(C)c2cnc3cc(F)c(-c4ccc(OCCCN5CCCCC5)nc4)cc3c21` + Cc1cccc(N(C)C(=O)C2C(O)CCN2c2nc(C)cc(C(F)(F)F)c2C#N)c1, the IC50 (second compound 0.0316 µM) is reported as 3.93 µM, the IC50 (second compound 0.1 µM) is reported as 3.63 µM and the IC50 (second compound 0.316 µM) is reported as 3.68 µM. The IC50 (second compound 1 µM) was 3.73 µM, the IC50 (second compound 3.16 µM) was 4.43 µM and the IC50 (second compound 10 µM) was 2.19 µM. The viability, T/C [1] was 83.1%, the viability, T/C [2] was 75.4% and the viability, T/C [3] was 89.5%. The viability, T/C [4] was 84.4%, the viability, T/C [5] was 58.1% and the viability, T/C [6] was 14.7%. For the same compound, the viability, T/C [7] was 87.9%, the viability, T/C [8] was 78.6% and the viability, T/C [9] was 77%. The viability, T/C [10] was 66.8%, the viability, T/C [11] was 59.3% and the viability, T/C [12] was 15.5%. The viability, T/C [13] was 88.9%, the viability, T/C [14] was 82.6% and the viability, T/C [15] was 70.3%. For the same compound, the viability, T/C [16] was 81.6%, the viability, T/C [17] was 55.6% and the viability, T/C [18] was 12.8%. It also gave a viability, T/C [19] of 75.5%, a viability, T/C [20] of 97.5% and a viability, T/C [21] of 101%. For the same compound, the viability, T/C [22] was 75.9%, the viability, T/C [23] was 57% and the viability, T/C [24] was 15.5%. For the same compound, the viability, T/C [25] was 80.6%, the viability, T/C [26] was 87.9% and the viability, T/C [27] was 77.5%. For the same compound, the viability, T/C [28] was 98.9%, the viability, T/C [29] was 65.5% and the viability, T/C [30] was 12.7%. For the same compound, the viability, T/C [31] was 70%, the viability, T/C [32] was 66.3% and the viability, T/C [33] was 68.5%. It also gave a viability, T/C [34] of 52.7%, a viability, T/C [35] of 49.5% and a viability, T/C [36] of 12%.
